The text below walks through data of PubChem BioAssay (NCI).

Holding throughout (experiment): NCI anticancer screen, dose series, 48 h
The subject of assay [1] is NCI-H226 lung.
Assay [2] concerns HOP-62 NSCLC.
Assay [3] has as its system HCT-15 colon.
Assay [4] relates to SK-MEL-2 melanoma.
For assay [5], the system named is SF-539 CNS.
For assay [6], the system named is RXF 393 renal.
Assay [7] has as its system SK-MEL-5 melanoma.
In assay [8] the test system is K-562 leukemia.
Assay [9] relates to HCT-116 colon.
Assay [10] deals with COLO 205 colon.

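Cultured in 96-well plates, cells were exposed to test compound for 48 hours across five concentrations. Abbreviation: GI50, concentration required for 50% inhibition of growth. At the TGI there is no net growth.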

In the case of `NC(N)=N/N=C/c1c(-c2cc(Cl)sc2Cl)nc2sccn12`, the GI50 in [1] was 7.89 µM; in assay [2], 2.07 µM; in [3], 1.01 µM; in assay [4], 2.72 µM; in [5], 0.969 µM; in assay [6], 3.52 µM. In addition, the GI50 in assay [7] is 0.729 µM; in assay [8], 1.32 µM. The TGI is 18.9 µM in [1]; 7.24 µM in assay [2]; 2.87 µM in [3]; above 50 µM in [4]; 1.72 µM in [5]; 13.7 µM in assay [6]. The figures for the TGI in [7] and in assay [8] were 1.56 µM and 3.14 µM, respectively.
Consider `CC(C)(C)OC(=O)NCCc1cccc2c1oc1c(CCC(=O)O)cccc12`, for which the TGI in [1], in assay [3], in assay [9], in assay [4], in [5] and in assay [6] was above 100 µM each time. Also, the TGI in assay [7], in assay [10] and in assay [8] was above 100 µM in each case.
Take `C/C(=C\CCc1ccoc1)CC/C=C(\C)CCCN1CCOCC1`: the GI50 was 10.5 µM in assay [1]; 12.2 µM in assay [2]; 2.98 µM in assay [3]; 2.27 µM in [9]; 12.2 µM in assay [4]; 5.49 µM in [5]. Also, the values for the GI50 in [6], in assay [7] and in [10] were 9.17 µM, 1.7 µM and 3.15 µM, respectively. The TGI in assay [1] came out at 30.7 µM; in assay [2] it was 25.6 µM; in assay [3] it was 11.8 µM; in assay [9] it was 10.2 µM; in assay [4] it was 25.9 µM; in assay [5] it was 19.7 µM. In addition, the TGI in assay [6] was 23.2 µM; in [7], 3.52 µM; in assay [10], 12.4 µM.
Consider `Clc1cccc(Cl)c1C1CSc2ccccc2N=C1c1ccccc1` (centres undefined), for which the GI50 was 20.5 µM in assay [1]; 20.7 µM in assay [2]; 1.66 µM in assay [3]; 1.71 µM in assay [9]; 11.2 µM in assay [4]; 6.08 µM in [5]. Further, the GI50 in [6] was 9.74 µM; in assay [7], 4.74 µM; in assay [10] it was 12.3 µM. For the same molecule, the TGI in [1] was 74.2 µM; in [2] it was 41 µM; in assay [3] it was 3.98 µM; in [9], 3.32 µM; in assay [4] it was 24.3 µM; in assay [5], 18.9 µM. For the same molecule, the figures for the TGI in assay [6], in assay [7] and in assay [10] were 24.1 µM, 18.1 µM and 33.5 µM, respectively.
On to `OCC(O)C(O)C(O)c1nn(-c2ccc(Cl)cc2)c2nc3cc(Cl)c(Cl)cc3nc12` (centres undefined), for which the TGI in [1] is 58.4 µM; in assay [2], 71 µM; in assay [9], above 100 µM; in [4], above 100 µM; in assay [5] it was above 100 µM; in assay [6], 72.4 µM. In addition, the TGI in assay [10] and in assay [8] was above 100 µM throughout.
`COC(=O)C(=O)C(C(=O)C(=O)Nc1nc2ccc(C)cc2s1)c1nc2ccc([N+](=O)[O-])cc2[nH]c1=O` (centres undefined): the TGI in assay [1], in [2], in assay [3], in assay [9], in [4] and in assay [5] was above 100 µM in each case. In addition, the TGI in [6], in assay [7] and in assay [8] was above 100 µM throughout.
With `Cc1ccc(NC(=O)C(=O)C(C#N)c2nc(-c3ccc(-c4ccccc4)cc3)cs2)c(C)c1` (centres undefined), the TGI in assay [1], in assay [2], in assay [3], in assay [9], in [4] and in assay [5] was above 100 µM each time. Further, the TGI in [6], in [7] and in assay [10] was above 100 µM each time.
As for `CCN1C(=O)N(CC)C2Nn3c(s/c(=C\c4ccccc4Br)c3=O)=NC21` (centres undefined), the GI50 in assay [1] was 6.31 µM; in assay [2], 2.81 µM; in assay [3], 1.48 µM; in [9], 0.497 µM; in assay [4], 3.55 µM; in [5], 0.889 µM. In addition, the figures for the GI50 in assay [6], in [7] and in assay [8] were 1.09 µM, 1.71 µM and 0.515 µM, respectively. For the same molecule, the TGI was above 100 µM in assay [1]; above 100 µM in [2]; above 100 µM in assay [3]; above 100 µM in assay [9]; 25.6 µM in assay [4]; 3.08 µM in assay [5]. Besides, the TGI in [6] was 6.91 µM; in assay [7] it was 5.64 µM; in [8] it was above 100 µM.
With `N/N=C(\C(=O)Nc1ccc(Cl)cc1Cl)C(c1cnc2ccccc2n1)[N+](=O)[O-]` (centres undefined), the TGI in assay [1], in assay [2], in [3], in [9], in [4] and in assay [5] was above 100 µM in each case. For the same molecule, the TGI in [6], in assay [7] and in [8] was above 100 µM each time.
